System: CD8+ T cells
Test: Dose titration of CGS-21680 on T cell proliferation (CFSE)
Type: cell-based, human
Conditions: CFSE-labeled CD8+ T cells, two donors
Experimental: FIG. 12A-E. Screen for Resistance to an Immunosuppressive Signal in Primary T Cells Using SLICE, Related to FIG. 6. Section A: a dose titration of adenosine receptor agonist CGS-21680 for the optimal effects on T cell proliferation inhibition identified 20 μM as sufficiently suppressive. Shown are representative CFSE profiles for varying concentrations of CGS-21680, as labeled at the top of each panel. Data is for CFSE-labeled CD8^+ T cells from two human donors. Section C: Comparison of the overlapping top 25 hits for the two screen conditions (CGS-21680 and vehicle). We noted that while many hits from the vehicle screen also boosted proliferation in the presence of the immunosuppressive adenosine agonist (trending along diagonal), ADORA2A and FAM105A sgRNAs were enriched selectively in the setting of the adenosine agonist. ADORA2A and FAM105A were the only hits in the top 0.1% by LFC in the CGS-21680 treated condition and also in the top 0.1% by LFC difference between the CGS-21680 and the vehicle GW screen conditions. Section D: Paralogs FAM105A and OTULIN (FAM105B) are 40% homologous and are encoded at neighboring sites on chromosome 5. […] A non-synonymous single nucleotide polymorphism (SNP) in FAM105A has been linked to allergic disease by genome wide association studies (Ferreira et al., 2017). […]

With `CCNC(=O)[C@H]1O[C@@H](n2cnc3c(N)nc(NCCc4ccc(CCC(=O)O)cc4)nc32)[C@H](O)[C@@H]1O` [CGS-21680] the “concentration sufficiently suppressive of T cell proliferation” value was 20 µM.
